# Tested on: IFN-γ
# Assay: IFN-γ levels in sera upon i.v. glycolipid administration to BALB/c mice (ELISA)
# Type: in vivo
# Design: IFN-γ levels, test 1 / IFN-γ levels, test 2 / IFN-γ levels, average / IFN-γ levels, Total: unit not given here
# Conditions: BALB/c, ratio calculated from Tables 1-6
# Method: (§1) Five- to six-week-old female C57BL/6 mice and BALB/c mice were purchased from Taconic. Each glycolipid was stored at 1 mg/ml in 100% DMSO. Mice were injected intravenously with 1 μg of each glyocolipid diluted in 200 μL sterile phosphate buffered saline (PBS). At indicated time points, sera were collected from each animal, and concentrations of IFN-γ, IL-4, and IL-12 in the sera were evaluated by enzyme-linked immunosorbent assay (ELISA). Serum concentrations of IFN-γ, IL-4, and IL-12 were evaluated using an ELISA kit (eBioscience, San Diego, Calif.). Briefly, 96 well flat-bottom ELISA plates (NUNC) were coated with capture antibody according to the manufacture's recommendation and incubated overnight at 4° C. The plates were washed with PBS+0.05% Tween 20 (PBS-T), then incubated with manufacturer provided blocking solution for 1 hr at room temperature to block non-specific binding sites. After washing with PBS-T, sera diluted 1:10 was added to the wells and incubated for 2 hrs at room temperature. Plates were then incubated at room temperature for 1 hr with biotintylated detection antibody, washed, incubated with avidin conjugated to horse radish peroxidase (HRP) for 30 min at room temperature, washed, and finally incubated with tetramethylbenzidine substrate solution in the dark for 10 minutes at room temperature. The antibodies, avidin-HRP, and substrate solution were all diluted according to the manufacture's recommendation. Reactions were stopped with 2.0N sulfuric acid and the cytokine concentration in each well was determined by comparing the absorbance at 450 nm in each well to known standards. The levels of Th1- and Th2-type cytokines were determined in two different genetic backgrounds, i.e., in C57BL/6 mice and BALB/c mice. The following compounds were administered: A=compound (A-1 trans-conformer), B=compound (A-2), C=compound (A-3), D=compound (A-4), E=compound (A-5), Z=control (PBS alone), CRONY=α-C-GalCer, KRN=α-GalCer, GCK109 (A-1 trans-conformer), GCK151 (A-1 cis-conformer), GCK152 (A-7). The levels of cytokines were measured at 0, 2, 6, 12, 24, 48, and 72 hours after the compound administration. The levels of Th1-type cytokines IFN-γ and IL-12 are summarized in FIGS. 2A-C and 3A-C, respectively. Table 7 provides IFN-γ/IL-4 and IL-12/IL-4 ratios for various compounds, which can be used as indicators of their ability to selectively stimulate Th1-type immune responses.
row,Compound,IFN-γ/IL-4 (BALB/c)
1,CCCCCCCCCCCCCC[C@@H](O)[C@@H](O)[C@H](CC[C@H]1O[C@H](CO)[C@H](O)[C@H](O)[C@H]1O)NC(=O)CCCCCCCCCCCCCCCCCCCOCCCCCC [A-4],44

# Same assay, conditions: BALB/c, serum, hour 0
Compound,"IFN-γ levels, average","IFN-γ levels, test 1","IFN-γ levels, test 2"
CCCCCCCCCCCCCC[C@@H](O)[C@@H](O)[C@H](CC[C@H]1O[C@H](CO)[C@H](O)[C@H](O)[C@H]1O)NC(=O)CCCCCCCCCCCCCCCCCCCOCCCCCC [A-4],27,27,27

# Same assay, conditions: BALB/c, serum, hour 2
Compound,"IFN-γ levels, average","IFN-γ levels, test 1","IFN-γ levels, test 2"
CCCCCCCCCCCCCC[C@@H](O)[C@@H](O)[C@H](CC[C@H]1O[C@H](CO)[C@H](O)[C@H](O)[C@H]1O)NC(=O)CCCCCCCCCCCCCCCCCCCOCCCCCC [A-4],142.5,140,145

# Same assay, conditions: BALB/c, serum, hour 6
Compound,"IFN-γ levels, average","IFN-γ levels, test 1","IFN-γ levels, test 2"
CCCCCCCCCCCCCC[C@@H](O)[C@@H](O)[C@H](CC[C@H]1O[C@H](CO)[C@H](O)[C@H](O)[C@H]1O)NC(=O)CCCCCCCCCCCCCCCCCCCOCCCCCC [A-4],1742,1778,1706

# Same assay, conditions: BALB/c, serum, hour 12
Compound,"IFN-γ levels, average","IFN-γ levels, test 1","IFN-γ levels, test 2"
CCCCCCCCCCCCCC[C@@H](O)[C@@H](O)[C@H](CC[C@H]1O[C@H](CO)[C@H](O)[C@H](O)[C@H]1O)NC(=O)CCCCCCCCCCCCCCCCCCCOCCCCCC [A-4],6513.5,4988,8039

# Same assay, conditions: BALB/c, serum, hour 24
Compound,"IFN-γ levels, average","IFN-γ levels, test 1","IFN-γ levels, test 2"
CCCCCCCCCCCCCC[C@@H](O)[C@@H](O)[C@H](CC[C@H]1O[C@H](CO)[C@H](O)[C@H](O)[C@H]1O)NC(=O)CCCCCCCCCCCCCCCCCCCOCCCCCC [A-4],14100,14000,14200

# Same assay, conditions: BALB/c, serum, hour 48
Compound,"IFN-γ levels, average","IFN-γ levels, test 1","IFN-γ levels, test 2"
CCCCCCCCCCCCCC[C@@H](O)[C@@H](O)[C@H](CC[C@H]1O[C@H](CO)[C@H](O)[C@H](O)[C@H]1O)NC(=O)CCCCCCCCCCCCCCCCCCCOCCCCCC [A-4],929.5,752,1107

# Same assay, conditions: BALB/c, serum, hour 72
Compound,"IFN-γ levels, average","IFN-γ levels, test 1","IFN-γ levels, test 2"
CCCCCCCCCCCCCC[C@@H](O)[C@@H](O)[C@H](CC[C@H]1O[C@H](CO)[C@H](O)[C@H](O)[C@H]1O)NC(=O)CCCCCCCCCCCCCCCCCCCOCCCCCC [A-4],56.5,47,66

# Same assay, conditions: BALB/c, serum, total over hours 0-72
row,Compound,"IFN-γ levels, Total"
1,CCCCCCCCCCCCCC[C@@H](O)[C@@H](O)[C@H](CC[C@H]1O[C@H](CO)[C@H](O)[C@H](O)[C@H]1O)NC(=O)CCCCCCCCCCCCCCCCCCCOCCCCCC [A-4],22676

# Tested on: IL-12
# Assay: IL-12 levels in sera upon i.v. glycolipid administration to BALB/c mice (ELISA)
# Type: in vivo
# Design: IL-12 levels, test 1 / IL-12 levels, test 2 / IL-12 levels, average / IL-12 levels, Total: unit not given here
# Conditions: ratio calculated from Tables 1-6
# Method: as §1
row,Compound,IL-12/IL-4 (BALB/c)
1,CCCCCCCCCCCCCC[C@@H](O)[C@@H](O)[C@H](CC[C@H]1O[C@H](CO)[C@H](O)[C@H](O)[C@H]1O)NC(=O)CCCCCCCCCCCCCCCCCCCOCCCCCC [A-4],12

# Same assay, conditions: serum, hour 0
Compound,"IL-12 levels, average","IL-12 levels, test 1","IL-12 levels, test 2"
CCCCCCCCCCCCCC[C@@H](O)[C@@H](O)[C@H](CC[C@H]1O[C@H](CO)[C@H](O)[C@H](O)[C@H]1O)NC(=O)CCCCCCCCCCCCCCCCCCCOCCCCCC [A-4],5,5,5

# Same assay, conditions: serum, hour 2
Compound,"IL-12 levels, average","IL-12 levels, test 1","IL-12 levels, test 2"
CCCCCCCCCCCCCC[C@@H](O)[C@@H](O)[C@H](CC[C@H]1O[C@H](CO)[C@H](O)[C@H](O)[C@H]1O)NC(=O)CCCCCCCCCCCCCCCCCCCOCCCCCC [A-4],54.5,57,52

# Same assay, conditions: serum, hour 6
Compound,"IL-12 levels, average","IL-12 levels, test 1","IL-12 levels, test 2"
CCCCCCCCCCCCCC[C@@H](O)[C@@H](O)[C@H](CC[C@H]1O[C@H](CO)[C@H](O)[C@H](O)[C@H]1O)NC(=O)CCCCCCCCCCCCCCCCCCCOCCCCCC [A-4],914.5,730,1099

# Same assay, conditions: serum, hour 12
Compound,"IL-12 levels, average","IL-12 levels, test 1","IL-12 levels, test 2"
CCCCCCCCCCCCCC[C@@H](O)[C@@H](O)[C@H](CC[C@H]1O[C@H](CO)[C@H](O)[C@H](O)[C@H]1O)NC(=O)CCCCCCCCCCCCCCCCCCCOCCCCCC [A-4],4463,3799,5127

# Same assay, conditions: serum, hour 24
Compound,"IL-12 levels, average","IL-12 levels, test 1","IL-12 levels, test 2"
CCCCCCCCCCCCCC[C@@H](O)[C@@H](O)[C@H](CC[C@H]1O[C@H](CO)[C@H](O)[C@H](O)[C@H]1O)NC(=O)CCCCCCCCCCCCCCCCCCCOCCCCCC [A-4],333.5,396,271

# Same assay, conditions: serum, hour 48
Compound,"IL-12 levels, average","IL-12 levels, test 1","IL-12 levels, test 2"
CCCCCCCCCCCCCC[C@@H](O)[C@@H](O)[C@H](CC[C@H]1O[C@H](CO)[C@H](O)[C@H](O)[C@H]1O)NC(=O)CCCCCCCCCCCCCCCCCCCOCCCCCC [A-4],89,58,120

# Same assay, conditions: serum, hour 72
Compound,"IL-12 levels, average","IL-12 levels, test 1","IL-12 levels, test 2"
CCCCCCCCCCCCCC[C@@H](O)[C@@H](O)[C@H](CC[C@H]1O[C@H](CO)[C@H](O)[C@H](O)[C@H]1O)NC(=O)CCCCCCCCCCCCCCCCCCCOCCCCCC [A-4],64.5,78,51

# Same assay, conditions: serum, total over hours 0-72
row,Compound,"IL-12 levels, Total"
1,CCCCCCCCCCCCCC[C@@H](O)[C@@H](O)[C@H](CC[C@H]1O[C@H](CO)[C@H](O)[C@H](O)[C@H]1O)NC(=O)CCCCCCCCCCCCCCCCCCCOCCCCCC [A-4],5926

# — patent US8883745B2, “C—glycolipids with enhanced Th-1 profile” (New York University, priority 2006, dated 2014)
